Assay results as given in patent publication US20240166645A1, “PYRIDOPYRIMIDINONE DERIVATIVE, PREPARATION METHOD THEREFOR, AND USE THEREOF” (Wuhan Humanwell Innovative Drug Research and Development …, priority 2021, published 2024).
Where two headings read alike, the source gives them in different places.

Assays:
CYP3A4 = CYP3A4 (Homo sapiens (Human), UniProt P08684); experiment: Inhibition test on cytochrome P450 subtype CYP3A4; format: in vitro ADME; details: compound 10 μM, human liver microsomes
Experimental: The inhibitory potential of compounds on cytochrome P450 (CYP450) subtype CYP3A4 (two substrates of midazolam and testosterone) was detected. First, the compound to be tested was prepared into a 10 mM stock solution in DMSO solvent, and the CYP3A4 inhibitor ketoconazole was prepared as 10 mM, 2.5 mM and 2.5 mM stock solutions in DMSO solvent. The test compound and ketoconazole were diluted to 400-fold final concentration (compound: 10 μM, ketoconazole: 2.5 μM) with acetonitrile.
NADPH cofactor (10 mL of potassium phosphate buffer added with 66.7 mg NADPH) at 4-fold final concentration and substrates were prepared with potassium phosphate buffer (0.1 M, pH=7.4), with CYP3A4 substrate midazolam at a final concentration of […] and CYP3A4 substrate testosterone at a final concentration of 20 μM.
A human liver microsome solution at a concentration of 0.2 mg/mL was prepared with potassium phosphate buffer on ice. A solution of the compound to be tested and a control inhibitor (control compound) solution at 2-fold final concentration were prepared with the human liver microsome solution on ice. The test wells were added with […] of the test compound solution and the control inhibitor solution respectively, and then added with […] of the substrate for duplication. A 96-well assay plate and a NADPH solution were incubated at 37° C. for 5 min, and 15 μL of pre-heated 8 mM NADPH solution was added to the assay plate to initiate the reaction. A CYP3A4 assay plate was pre-incubated at 37° C. for 5 min. The plate was added with 120 μL of acetonitrile to terminate the reaction, and after quenching, the plate was shaken on a shaker (IKA, MTS 2/4) for 10 min (600 rpm/min), and then centrifuged for 15 min. After centrifugation, the supernatant was collected, and added with purified water in a ratio of 1:1 to perform LC-MS/MS detection. A ratio of a peak area of compound to a peak area of internal standard was obtained, and the peak area ratio of the compound was compared with the peak area ratio of the control inhibitor to calculate the inhibition rate.

[1] = Plasma protein binding by equilibrium dialysis, mouse plasma; format: in vitro ADME; details: 37° C., read-out: Free fraction in plasma, Mouse (%)
Experimental: Plasma protein binding rate of compounds was detected by equilibrium dialysis (HTDialysis, HTD 96b). The compound was prepared into a […] stock solution with DMSO, and then 25-fold diluted with 0.05 M sodium phosphate buffer as a working solution. A blank 96-well plate was taken and preloaded with 380 μL of plasma per well. The plasma was then added with the working solution at 20 μL/well and mixed well, with the compound at a final concentration of 1 μM, containing 0.2% DMSO per well.
100 μL of 0.05 M sodium phosphate buffer was added to the reception-side of each dialysis chamber (HTD 96b), and then 100 μL of plasma containing the compound was added to the supply-side. The dialysis chamber was covered with a plastic lid, shaken and incubated at 37° C. for 5 h.
After incubation, 25 μL of samples were taken from each of the supply-side and the reception-side of the dialysis chamber and placed in the blank 96-well plate. An equal volume of plasma was added to each of the supply-side samples while an equal volume of 0.05 M sodium phosphate buffer was added to each of the reception-side samples and mixed well. The 96-well plate was added with an acetonitrile solution containing internal standard at 200 μL per well, vortexed and shaken at 600 rpm for 10 min, and centrifuged at 5594 g for 15 min (Thermo Multifuge×3R). 50 μL of the supernatant was then transferred to a new 96-well plate, and the samples were mixed with 50 μL of ultra-pure water for LC-MS/MS analysis.
Plasma protein binding rate and free fraction were calculated using the following formulas: % binding rate=100×([supply-side concentration]5h−[reception-side concentration]5h)/[supply-side concentration]5h. % free fraction=100−% binding rate.

[2] = Pharmacokinetic test in mice; format: in vivo; details: mouse, plasma; male ICR mice, oral gavage, 10 mg/kg
Experimental: Male ICR mice (20 to 25 g) were used and fasted overnight. Three mice were taken and orally administered by gavage (10 mg/kg). Blood was collected before the administration, and at 15 min, 30 min, 1 h, 2 h, 4 h, 8 h and 24 h after the administration. 6,800 g of the blood samples were centrifuged at 2 to 8° C. for 6 min, and plasma was collected and stored at −80° C. The plasma at each time point was taken and added with an acetonitrile solution containing internal standard in 3 to 5 times the amount, vortexed and mixed for 1 min, and centrifuged at 13,000 rpm/min at 4° C. for 10 min. The supernatant was collected, added with water in 3 times the amount, and mixed. An appropriate amount of the mixture was taken for LC-MS/MS analysis. The main pharmacokinetic parameters were analyzed using WinNonlin 7.0 software with non-compartmental model.

[3] = pH 7.4, probe midazolam, substrate midazolam, read-out: CYP inhibition rate (%) CYP3A4 (midazolam)
[4] = pH 7.4, probe testosterone, substrate testosterone, read-out: CYP inhibition rate (%) CYP3A4 (testosterone)

CYP3A4, sequence (P08684 whole entry): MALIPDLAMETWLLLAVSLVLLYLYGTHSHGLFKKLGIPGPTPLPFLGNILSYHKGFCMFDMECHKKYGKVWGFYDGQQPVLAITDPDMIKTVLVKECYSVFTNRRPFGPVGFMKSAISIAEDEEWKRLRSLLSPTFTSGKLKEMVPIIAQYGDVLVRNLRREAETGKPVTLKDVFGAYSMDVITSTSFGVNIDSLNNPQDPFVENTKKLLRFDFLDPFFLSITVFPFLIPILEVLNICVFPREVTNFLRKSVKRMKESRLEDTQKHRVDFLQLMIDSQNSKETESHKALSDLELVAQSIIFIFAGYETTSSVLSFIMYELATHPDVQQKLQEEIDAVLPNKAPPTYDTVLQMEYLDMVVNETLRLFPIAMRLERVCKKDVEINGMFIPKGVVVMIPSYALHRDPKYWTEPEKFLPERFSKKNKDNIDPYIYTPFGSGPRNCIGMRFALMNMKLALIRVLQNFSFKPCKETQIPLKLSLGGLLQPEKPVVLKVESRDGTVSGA

Work on Cc1nc(N[C@H](C)c2cccc(S(=O)(=O)C(F)F)c2C)c2cn(C3(CF)CC3)c(=O)cc2n1 [Compound I-1, (R)-4-((1-(3-((difluoromethyl)sulfonyl)-2-methylphenyl)ethyl)amino)-6-(1-(fluoromethyl)cyclopropyl)-2-methylpyrido[4,3-d]pyrimidin-7(6H)-one] yielded an inhibition at 5 min, 10 µM (CYP3A4; [3]) of 17.8%, an inhibition at 5 min, 10 µM (CYP3A4; [4]) of 0% and a fraction unbound at 5 h, 1 µM [1] of 0.054.
With Cc1nc(N[C@H](C)c2cccc(S(=O)(=O)C(F)(F)F)c2F)c2cn(C3(CF)CC3)c(=O)cc2n1 [Compound I-2, (R)-4-((1-(2-fluoro-3-((trifluoromethyl)sulfonyl)phenyl)ethyl)amino)-6-(1-(fluoromethyl)cyclopropyl)-2-methylpyrido[4,3-d]pyrimidin-7(6H)-one] the inhibition at 5 min, 10 µM (CYP3A4; [3]) was 10.8%, the inhibition at 5 min, 10 µM (CYP3A4; [4]) was 0% and the fraction unbound at 5 h, 1 µM [1] was 0.028. The AUC(0-t) [2] was 0.517 µg·h/mL, the Cmax [2] was 0.256 µg/mL and the Tmax [2] was 30 min. The half-life [2] was 59.4 min.
